Test results reported in ChEMBL document CHEMBL5291721, “A preclinical secondary pharmacology resource illuminates target-adverse drug reaction associations of marketed drugs” (Nat Commun, 2023).

What was measured:
[1] = target: T1, Muscarinic acetylcholine receptor M2 (Homo sapiens, UniProt P08172); format: functional, cell-based
T1 sequence (P08172 whole entry): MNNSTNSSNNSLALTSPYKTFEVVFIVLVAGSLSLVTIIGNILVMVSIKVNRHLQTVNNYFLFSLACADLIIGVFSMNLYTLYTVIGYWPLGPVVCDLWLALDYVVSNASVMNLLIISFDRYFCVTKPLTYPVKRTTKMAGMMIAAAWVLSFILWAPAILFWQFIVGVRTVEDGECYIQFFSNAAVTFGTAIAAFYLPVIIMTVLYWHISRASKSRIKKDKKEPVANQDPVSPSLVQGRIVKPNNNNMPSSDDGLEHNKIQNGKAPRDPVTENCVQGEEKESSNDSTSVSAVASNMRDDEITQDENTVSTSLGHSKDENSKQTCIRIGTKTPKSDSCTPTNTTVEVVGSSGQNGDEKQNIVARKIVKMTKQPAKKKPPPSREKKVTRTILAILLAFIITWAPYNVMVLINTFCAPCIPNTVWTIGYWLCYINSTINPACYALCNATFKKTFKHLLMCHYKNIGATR

[2] = target: T2, Muscarinic acetylcholine receptor M1 (Homo sapiens, UniProt P11229); format: functional, cell-based
T2 sequence (P11229 whole entry): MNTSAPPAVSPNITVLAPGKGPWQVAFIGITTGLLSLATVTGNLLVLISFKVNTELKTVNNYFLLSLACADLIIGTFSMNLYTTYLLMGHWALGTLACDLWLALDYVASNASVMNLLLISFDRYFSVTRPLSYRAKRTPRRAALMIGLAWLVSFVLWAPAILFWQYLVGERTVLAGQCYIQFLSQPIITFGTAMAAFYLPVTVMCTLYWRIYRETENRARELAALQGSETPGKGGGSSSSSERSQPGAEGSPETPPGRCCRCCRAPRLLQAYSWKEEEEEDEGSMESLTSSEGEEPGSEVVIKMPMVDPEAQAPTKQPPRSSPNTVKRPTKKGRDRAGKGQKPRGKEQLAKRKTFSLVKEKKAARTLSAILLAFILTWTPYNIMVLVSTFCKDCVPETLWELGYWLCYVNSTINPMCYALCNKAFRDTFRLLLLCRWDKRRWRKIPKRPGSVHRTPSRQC

[3] = target: T3, Progesterone receptor (Homo sapiens, UniProt P06401)
T3 sequence (P06401 whole entry): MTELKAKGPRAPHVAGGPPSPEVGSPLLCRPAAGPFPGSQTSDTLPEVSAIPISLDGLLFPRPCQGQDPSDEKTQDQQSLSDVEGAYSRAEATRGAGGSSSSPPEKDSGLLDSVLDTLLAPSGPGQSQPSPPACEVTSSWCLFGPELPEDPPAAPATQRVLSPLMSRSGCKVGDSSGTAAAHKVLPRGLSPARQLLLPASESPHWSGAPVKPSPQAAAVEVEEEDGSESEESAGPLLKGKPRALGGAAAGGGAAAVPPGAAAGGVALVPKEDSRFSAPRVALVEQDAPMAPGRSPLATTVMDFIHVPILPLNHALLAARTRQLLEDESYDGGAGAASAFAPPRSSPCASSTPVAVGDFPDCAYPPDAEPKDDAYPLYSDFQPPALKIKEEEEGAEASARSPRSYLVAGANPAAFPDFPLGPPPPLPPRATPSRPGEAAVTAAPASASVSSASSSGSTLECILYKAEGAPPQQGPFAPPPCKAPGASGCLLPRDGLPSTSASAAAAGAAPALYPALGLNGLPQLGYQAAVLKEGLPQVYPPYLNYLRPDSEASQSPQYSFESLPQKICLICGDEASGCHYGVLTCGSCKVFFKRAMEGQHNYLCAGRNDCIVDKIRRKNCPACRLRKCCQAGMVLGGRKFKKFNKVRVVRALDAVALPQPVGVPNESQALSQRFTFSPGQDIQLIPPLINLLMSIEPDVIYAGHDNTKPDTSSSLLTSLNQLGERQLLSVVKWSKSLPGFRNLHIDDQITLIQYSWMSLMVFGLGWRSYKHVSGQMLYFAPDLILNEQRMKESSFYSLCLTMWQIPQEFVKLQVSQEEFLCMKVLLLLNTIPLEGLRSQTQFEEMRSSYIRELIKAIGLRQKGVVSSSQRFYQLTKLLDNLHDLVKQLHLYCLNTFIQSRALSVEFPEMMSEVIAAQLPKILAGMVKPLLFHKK

[4] = target: T2, Muscarinic acetylcholine receptor M1; format: functional, cell-based; remark: listed apart in the source
[5] = target: Gamma-aminobutyric acid receptor subunit alpha-1 (Rattus norvegicus, UniProt P62813)
[6] = target: Gamma-aminobutyric acid receptor subunit alpha-1/alpha-2/beta-2/gamma-2 (Homo sapiens, UniProt P14867+P18507+P47869+P47870); format: protein-complex assay
Further: assay procedure not described here.

Chain of Gamma-aminobutyric acid receptor subunit alpha-1 (P62813 whole entry): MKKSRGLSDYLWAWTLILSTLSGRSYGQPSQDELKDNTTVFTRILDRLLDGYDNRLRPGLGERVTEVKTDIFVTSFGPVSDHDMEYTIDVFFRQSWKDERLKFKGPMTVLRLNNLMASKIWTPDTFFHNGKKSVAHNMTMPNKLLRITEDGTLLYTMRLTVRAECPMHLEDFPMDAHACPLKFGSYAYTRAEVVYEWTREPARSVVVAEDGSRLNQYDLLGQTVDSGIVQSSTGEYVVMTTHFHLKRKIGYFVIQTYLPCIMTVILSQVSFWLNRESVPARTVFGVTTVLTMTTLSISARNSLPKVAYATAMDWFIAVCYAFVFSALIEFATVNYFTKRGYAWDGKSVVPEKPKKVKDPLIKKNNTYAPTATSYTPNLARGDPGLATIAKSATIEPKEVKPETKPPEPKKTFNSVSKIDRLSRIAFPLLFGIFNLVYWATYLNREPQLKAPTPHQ
Chain of Gamma-aminobutyric acid receptor subunit alpha-1/alpha-2/beta-2/gamma-2 (P14867 whole entry): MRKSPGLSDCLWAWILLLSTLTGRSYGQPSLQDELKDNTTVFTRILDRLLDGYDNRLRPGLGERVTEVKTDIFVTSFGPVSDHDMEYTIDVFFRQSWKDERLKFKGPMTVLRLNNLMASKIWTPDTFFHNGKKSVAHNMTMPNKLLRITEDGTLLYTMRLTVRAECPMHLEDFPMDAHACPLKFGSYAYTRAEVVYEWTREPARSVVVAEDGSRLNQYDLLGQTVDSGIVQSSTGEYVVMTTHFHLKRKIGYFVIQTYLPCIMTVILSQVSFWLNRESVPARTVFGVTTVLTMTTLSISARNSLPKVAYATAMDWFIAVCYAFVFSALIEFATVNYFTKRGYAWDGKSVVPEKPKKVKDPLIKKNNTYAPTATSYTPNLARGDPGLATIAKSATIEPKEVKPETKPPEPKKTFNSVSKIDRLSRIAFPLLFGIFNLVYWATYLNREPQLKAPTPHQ
Chain of Gamma-aminobutyric acid receptor subunit alpha-1/alpha-2/beta-2/gamma-2 (P47870 whole entry): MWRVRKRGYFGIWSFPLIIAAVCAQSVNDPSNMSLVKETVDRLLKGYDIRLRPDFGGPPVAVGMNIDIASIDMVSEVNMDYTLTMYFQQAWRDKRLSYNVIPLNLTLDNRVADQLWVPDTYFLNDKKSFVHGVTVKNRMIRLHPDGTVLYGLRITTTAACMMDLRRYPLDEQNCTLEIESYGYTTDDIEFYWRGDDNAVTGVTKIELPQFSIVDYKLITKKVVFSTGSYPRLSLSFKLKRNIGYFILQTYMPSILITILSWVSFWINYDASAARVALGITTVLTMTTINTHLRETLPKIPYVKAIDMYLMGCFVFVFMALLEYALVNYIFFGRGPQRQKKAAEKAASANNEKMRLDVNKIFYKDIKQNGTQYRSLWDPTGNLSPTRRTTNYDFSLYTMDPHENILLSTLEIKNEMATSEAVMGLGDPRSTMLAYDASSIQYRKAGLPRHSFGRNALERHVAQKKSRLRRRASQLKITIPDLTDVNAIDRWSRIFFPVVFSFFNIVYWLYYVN
Chain of Gamma-aminobutyric acid receptor subunit alpha-1/alpha-2/beta-2/gamma-2 (P18507 whole entry): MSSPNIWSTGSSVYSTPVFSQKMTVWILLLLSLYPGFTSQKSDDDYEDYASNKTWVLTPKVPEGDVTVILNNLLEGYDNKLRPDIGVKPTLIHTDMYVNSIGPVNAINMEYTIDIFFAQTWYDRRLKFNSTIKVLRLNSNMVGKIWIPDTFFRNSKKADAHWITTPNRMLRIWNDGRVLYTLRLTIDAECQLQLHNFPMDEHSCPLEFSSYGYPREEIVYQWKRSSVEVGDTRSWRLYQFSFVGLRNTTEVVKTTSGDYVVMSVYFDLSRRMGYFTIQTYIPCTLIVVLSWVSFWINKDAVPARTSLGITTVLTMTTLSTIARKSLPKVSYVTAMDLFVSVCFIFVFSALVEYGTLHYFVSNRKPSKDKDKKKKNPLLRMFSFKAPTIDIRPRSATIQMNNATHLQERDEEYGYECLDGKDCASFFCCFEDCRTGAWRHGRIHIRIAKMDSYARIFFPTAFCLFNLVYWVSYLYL
Chain of Gamma-aminobutyric acid receptor subunit alpha-1/alpha-2/beta-2/gamma-2 (P47869 whole entry): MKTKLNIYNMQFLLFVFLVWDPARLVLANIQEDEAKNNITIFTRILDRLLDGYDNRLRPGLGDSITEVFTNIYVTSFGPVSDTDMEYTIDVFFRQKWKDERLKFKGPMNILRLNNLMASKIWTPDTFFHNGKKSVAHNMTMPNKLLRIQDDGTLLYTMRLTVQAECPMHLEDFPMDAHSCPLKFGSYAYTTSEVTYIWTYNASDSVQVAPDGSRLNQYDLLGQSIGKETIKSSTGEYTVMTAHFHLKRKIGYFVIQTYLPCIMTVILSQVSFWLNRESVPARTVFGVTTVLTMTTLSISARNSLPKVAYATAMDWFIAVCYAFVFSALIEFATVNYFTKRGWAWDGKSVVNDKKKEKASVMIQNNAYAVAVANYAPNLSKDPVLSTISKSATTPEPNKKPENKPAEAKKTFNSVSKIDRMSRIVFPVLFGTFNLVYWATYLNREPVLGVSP

CC(C)(Oc1ccc(Cl)cc1)C(=O)OCCOC(=O)c1cccnc1 [ETOFIBRATE]
AC50 [1]: > 30 µM

CCOC1O[C@H]([C@@H](COCc2ccccc2)OCc2ccccc2)[C@H](OCc2ccccc2)[C@H]1O (stereo partly specified) [TRIBENOSIDE]
AC50 [2]: 8.21 µM
AC50 [3]: > 30 µM
AC50 [4]: > 30 µM
AC50 [5]: > 30 µM

Cc1c(C(C)C)c(=O)n(-c2ccccc2)n1C [PROPYPHENAZONE]
AC50 [2]: > 30 µM
AC50 [3]: > 30 µM
AC50 [4]: > 30 µM
AC50 [6]: > 30 µM

O=c1[nH]c(=O)n([C@H]2C[C@H](O)[C@@H](CO)O2)cc1/C=C/Br [BRIVUDINE]
AC50 [2]: > 30 µM
AC50 [3]: > 30 µM
AC50 [4]: > 30 µM
AC50 [6]: > 30 µM

C[C@@H]1CN(c2c(F)c(N)c3c(=O)c(C(=O)O)cn(C4CC4)c3c2F)C[C@H](C)N1 [SPARFLOXACIN]
AC50 [3]: > 30 µM
AC50 [6]: > 30 µM

CC1(C)CCC(C)(C)c2cc(NC(=O)c3ccc(C(=O)O)cc3)ccc21 [TAMIBAROTENE]
AC50 [2]: > 10 µM
AC50 [3]: 29.2 µM
AC50 [4]: > 30 µM
AC50 [5]: > 30 µM

CC(C)NC[C@H](O)COc1ccc(CCOCC2CC2)cc1 [LEVOBETAXOLOL]
AC50 [2]: > 30 µM
AC50 [3]: > 30 µM
AC50 [4]: > 30 µM
AC50 [5]: > 30 µM

Cc1ccc(Cl)c(Nc2ccccc2C(=O)O)c1Cl [MECLOFENAMIC ACID]
AC50 [3]: > 30 µM
AC50 [6]: > 3 µM

CC(=O)Nc1ccc(/C=N/NC(N)=S)cc1 [AMITHIOZONE]
AC50 [3]: > 30 µM
AC50 [5]: > 30 µM

O=C1Nc2ccccc2C1(c1ccc(O)cc1)c1ccc(O)cc1 [OXYPHENISATINE]
AC50 [2]: > 30 µM
AC50 [3]: > 30 µM
AC50 [4]: > 30 µM
AC50 [5]: > 30 µM

CSCC[C@H](N)C(=O)O [METHIONINE]
AC50 [3]: > 30 µM
AC50 [5]: > 30 µM

CNC(=O)c1cnn(-c2nc(N)c3ncn([C@@H]4O[C@H](CO)[C@@H](O)[C@H]4O)c3n2)c1 [REGADENOSON ANHYDROUS]
AC50 [2]: > 30 µM
AC50 [3]: > 30 µM
AC50 [4]: > 30 µM
AC50 [5]: > 30 µM

CC1=C(/C=C/C(C)=C/C=C/C(C)=C\C(=O)O)C(C)(C)CCC1 [ISOTRETINOIN]
AC50 [3]: > 30 µM
AC50 [5]: > 30 µM

CC1(C)O[C@@H]2C[C@H]3[C@@H]4CCC5=CC(=O)C=C[C@]5(C)[C@@]4(F)[C@@H](O)C[C@]3(C)[C@]2(C(=O)CO)O1 [TRIAMCINOLONE ACETONIDE]
AC50 [1]: > 30 µM

C[C@]12CCC(=O)C=C1[C@@H]1C[C@@H]1[C@H]1[C@@H]3[C@@H]4C[C@@H]4[C@@]4(CCC(=O)O4)[C@@]3(C)CC[C@@H]12 [DROSPIRENONE]
AC50 [1]: 13 µM

C#C[C@]1(OC(C)=O)CC[C@H]2[C@@H]3CCC4=CC(=O)CC[C@@H]4[C@H]3CC[C@@]21C [NORETHINDRONE ACETATE]
AC50 [3]: 0.033 µM
AC50 [6]: > 10 µM

COc1ccc(-c2cc(=S)ss2)cc1 [ANETHOLTRITHION]
AC50 [1]: > 30 µM

CN(C)CCC(O)(c1ccccc1)c1ccccc1Cl (stereo unspecified) [CHLOPHEDIANOL]
AC50 [1]: > 10 µM

NS(=O)(=O)c1cc2c(cc1Cl)NC(C(Cl)Cl)NS2(=O)=O (stereo unspecified) [TRICHLORMETHIAZIDE]
AC50 [3]: > 30 µM
AC50 [6]: > 30 µM

COc1cccc2c1C(=O)c1c(O)c3c(c(O)c1C2=O)C[C@@](O)(C(=O)CO)C[C@@H]3O[C@H]1C[C@H](N)[C@H](O)[C@H](C)O1 [DOXORUBICIN]
AC50 [1]: > 10 µM
AC50 [3]: > 30 µM
AC50 [5]: > 30 µM

CC(C)N1CCN(c2ccc(OCC3COC(Cn4cncn4)(c4ccc(Cl)cc4Cl)O3)cc2)CC1 (stereo unspecified) [TERCONAZOLE]
AC50 [3]: 18.7 µM
AC50 [6]: > 30 µM

N=C(N)NC(=O)c1nc(Cl)c(N)nc1N [AMILORIDE]
AC50 [1]: > 30 µM
AC50 [3]: > 30 µM
AC50 [5]: > 30 µM

CC(=O)OCC(=O)[C@@]1(OC(C)=O)[C@@H](C)C[C@H]2[C@@H]3C[C@H](F)C4=CC(=O)C=C[C@]4(C)[C@@]3(F)[C@@H](O)C[C@@]21C [DIFLORASONE DIACETATE]
AC50 [3]: 0.0193 µM
AC50 [6]: > 30 µM

CC(C)Cc1ccc(C(C)C(=O)OCc2ccccn2)cc1 (stereo unspecified) [IBUPROFEN PICONOL]
AC50 [2]: > 10 µM
AC50 [3]: 19.1 µM
AC50 [4]: > 30 µM
AC50 [5]: > 30 µM

N[C@@H](Cc1ccc(N(CCCl)CCCl)cc1)C(=O)O
AC50 [3]: > 30 µM
AC50 [6]: > 30 µM

CN(C)[C@@H]1C(O)=C(C(=O)NCN2CCCC2)C(=O)[C@@]2(O)C(O)=C3C(=O)c4c(O)cccc4[C@@](C)(O)[C@H]3C[C@@H]12 [ROLITETRACYCLINE]
AC50 [1]: > 10 µM

CC(CN(C)C)CN1c2ccccc2CCc2ccccc21 (stereo unspecified) [TRIMIPRAMINE]
AC50 [3]: > 30 µM
AC50 [6]: > 30 µM

C[C@]12C=CC(=O)C=C1CC[C@@H]1[C@@H]2[C@@H](O)C[C@@]2(C)[C@H]1CC[C@]2(O)C(=O)CO [PREDNISOLONE]
AC50 [1]: > 10 µM

C[C@]12CCC(=O)C=C1C=C[C@@H]1[C@@H]2CC[C@@]2(C)[C@H]1CC[C@@]21CCC(=O)O1 [CANRENONE]
AC50 [1]: > 30 µM

C[C@]12C=CC(=O)C=C1C(Cl)=C[C@@H]1[C@@H]2[C@@H](O)C[C@@]2(C)[C@H]1CC[C@]2(O)C(=O)CO [CLOPREDNOL]
AC50 [1]: > 30 µM

C[C@H]1C[C@H]2[C@@H]3CCC4=CC(=O)C=C[C@]4(C)[C@@]3(F)[C@@H](O)C[C@]2(C)[C@@]1(O)C(=O)CO [BETAMETHASONE]
AC50 [3]: 11.4 µM
AC50 [6]: > 30 µM

O=C(OOC(=O)c1ccccc1)c1ccccc1 [BENZOYL PEROXIDE]
AC50 [2]: > 30 µM
AC50 [3]: > 30 µM
AC50 [4]: > 30 µM
AC50 [5]: > 30 µM

CC1=C(/C=C/C(C)=C\C=C\C(C)=C\C(=O)O)C(C)(C)CCC1 [ALITRETINOIN]
AC50 [3]: > 30 µM
AC50 [5]: > 30 µM

COc1cccc2c1C(=O)c1c(O)c3c(c(O)c1C2=O)C[C@@](O)(C(=O)CO)C[C@@H]3O[C@H]1C[C@H](N)[C@@H](O)[C@H](C)O1 [EPIRUBICIN]
AC50 [3]: > 30 µM
AC50 [5]: > 30 µM

Cc1cccc(C)c1NC(=O)CN(CC(=O)O)CC(=O)O [LIDOFENIN]
AC50 [2]: > 30 µM
AC50 [3]: > 30 µM
AC50 [4]: > 30 µM
AC50 [5]: > 30 µM

N[C@@H](Cc1ccc(O)cc1)C(=O)O [TYROSINE]
AC50 [2]: > 30 µM
AC50 [3]: > 30 µM
AC50 [4]: > 30 µM
AC50 [5]: > 30 µM

CCC(=O)c1ccc2c(c1)N(CC(C)N(C)C)c1ccccc1S2 (stereo unspecified) [PROPIOMAZINE]
AC50 [1]: > 10 µM

CN1CCc2c(c3ccccc3n2Cc2ccccc2)C1 [MEBHYDROLIN]
AC50 [2]: 1.96 µM
AC50 [3]: > 30 µM
AC50 [4]: > 30 µM
AC50 [5]: 25.4 µM

CC(=O)OCC(=O)[C@@]1(O)CC[C@H]2[C@@H]3C[C@H](C)C4=CC(=O)C=C[C@]4(C)[C@H]3[C@@H](O)C[C@@]21C [METHYLPREDNISOLONE ACETATE]
AC50 [2]: > 30 µM
AC50 [3]: 3.03 µM
AC50 [4]: > 30 µM
AC50 [5]: > 30 µM

CC(=O)OC1CN2CCC1CC2 (stereo unspecified) [ACECLIDINE]
AC50 [3]: > 30 µM
AC50 [5]: > 30 µM

Cn1c(CCCC(=O)O)nc2cc(N(CCCl)CCCl)ccc21 [BENDAMUSTINE]
AC50 [2]: > 30 µM
AC50 [3]: > 30 µM
AC50 [4]: > 30 µM
AC50 [5]: > 30 µM

CC(C)=CCC/C(C)=C/CC/C(C)=C/CC/C(C)=C/CC1=C(C)C(=O)c2ccccc2C1=O [MENATETRENONE]
AC50 [2]: > 30 µM
AC50 [3]: 13.5 µM
AC50 [4]: > 30 µM
AC50 [5]: > 30 µM
